Laboratory results: patent US20240327382A1 (ALMAC DISCOVERY LIMITED, priority 2021, published 2024)

Target: T1, Full-length USP19 (Homo sapiens, UniProt O94966)
T1 construct: Full-length USP19 was purchased from Boston Biochem (E-576); purchased Boston Biochem E-576
T1 sequence (O94966 1-1318): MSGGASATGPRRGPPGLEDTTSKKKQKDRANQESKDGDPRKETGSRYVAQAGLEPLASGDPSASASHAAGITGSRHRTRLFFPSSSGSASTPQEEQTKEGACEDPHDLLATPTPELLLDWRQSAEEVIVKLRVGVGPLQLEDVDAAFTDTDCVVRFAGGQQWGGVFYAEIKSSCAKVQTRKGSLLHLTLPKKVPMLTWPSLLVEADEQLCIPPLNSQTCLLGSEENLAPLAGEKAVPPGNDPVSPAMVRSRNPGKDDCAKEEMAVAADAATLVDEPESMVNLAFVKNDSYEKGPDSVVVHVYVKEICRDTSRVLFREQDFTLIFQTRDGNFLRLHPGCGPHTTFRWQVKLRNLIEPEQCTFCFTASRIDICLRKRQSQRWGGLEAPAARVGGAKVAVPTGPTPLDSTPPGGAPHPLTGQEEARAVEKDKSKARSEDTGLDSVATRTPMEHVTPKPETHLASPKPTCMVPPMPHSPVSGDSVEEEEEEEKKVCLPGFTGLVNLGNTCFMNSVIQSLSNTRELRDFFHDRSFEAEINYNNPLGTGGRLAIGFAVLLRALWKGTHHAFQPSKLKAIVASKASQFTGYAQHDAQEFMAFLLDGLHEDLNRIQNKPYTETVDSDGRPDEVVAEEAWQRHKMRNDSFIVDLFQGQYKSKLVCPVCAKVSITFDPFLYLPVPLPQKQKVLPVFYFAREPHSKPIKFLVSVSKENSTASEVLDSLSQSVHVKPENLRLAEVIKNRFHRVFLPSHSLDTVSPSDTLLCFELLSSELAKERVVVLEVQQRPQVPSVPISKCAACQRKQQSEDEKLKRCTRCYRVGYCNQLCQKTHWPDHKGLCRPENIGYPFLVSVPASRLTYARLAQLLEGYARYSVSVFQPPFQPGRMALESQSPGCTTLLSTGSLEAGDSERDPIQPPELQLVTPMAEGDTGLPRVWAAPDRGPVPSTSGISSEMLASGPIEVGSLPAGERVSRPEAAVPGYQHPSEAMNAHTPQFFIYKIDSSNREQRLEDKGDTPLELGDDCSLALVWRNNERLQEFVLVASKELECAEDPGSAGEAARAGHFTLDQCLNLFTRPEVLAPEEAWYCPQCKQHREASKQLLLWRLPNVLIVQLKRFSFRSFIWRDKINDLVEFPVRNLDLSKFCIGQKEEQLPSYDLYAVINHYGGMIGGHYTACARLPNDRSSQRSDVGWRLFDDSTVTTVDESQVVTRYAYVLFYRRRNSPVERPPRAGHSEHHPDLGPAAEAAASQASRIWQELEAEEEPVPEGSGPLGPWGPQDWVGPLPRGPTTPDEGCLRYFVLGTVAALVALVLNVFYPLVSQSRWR
Assay: USP19 fluorescence polarisation (FP) assay, Ubiquitin-Lys-TAMRA substrate
Assay type: biochemical
Details: average of at least two duplicate experiments
Method: USP19 activity was determined in a fluorescence polarisation (FP) homogeneous assay using the isopeptide Ubiquitin-Lys-TAMRA substrate (either AUB-101, Almac Sciences Scotland Limited, or U-558, Boston Biochem, both of which gave identical results). Full-length USP19 was purchased from Boston Biochem (E-576). Unless otherwise stated, all other reagents were purchased from Sigma. Enzymatic reactions were conducted in black flat bottom polystyrene 384-well plates (Nunc) and 30 μL total volume. USP19 (2.5 nM, 10 μL) was incubated in assay buffer (50 mM HEPES (pH 7.4), 150 mM NaCl, 5 mM DTT, 0.05% BSA (w/v), 0.05% CHAPS) in the presence or absence of inhibitor (10 μL). Inhibitors were stored as 10 mM DMSO stocks in an inert environment (low humidity, dark, low oxygen, rt) using the StoragePod® system (Roylan Developments) and serial dilutions were prepared in buffer just prior to the assay (from 200 μM to 2 μM, 8-18 data point curve). Following incubation at RT for 30 min, the enzymatic reactions were initiated by dispensing the Ub substrate (500 nM, 10 μL). FP was measured every 15 min over a period of 90 min (within the linear range of the assay) using a Synergy 4 plate reader (BioTek) exciting at 530 nm and measuring the amount of parallel and perpendicular light at 575 nm. The FP signal was subsequently normalised to the no compound control. Data were plotted and fitted, and the concentrations resulting in 50% inhibition (IC50) were calculated using the non-linear regression curve fitting model using GraphPad (Prism). IC50 values for the inhibitors of the invention are compiled in Tables 1 and 3 and represent the average of at least two duplicate experiments.

SMILES	IC50 [nM]
Cc1cccnc1CN[C@@H]1CCN(C(=O)N2CC[C@@H](Cn3cnc(-c4ccccc4)cc3=O)C3(CCCC3)C2)[C@H](c2ccccc2)C1 [Example 193, 3-(((R)-7-((2S,4R)-4-(((3-Methylpyridin-2-yl)methyl)amino)-2-phenylpiperidine-1-carbonyl)-7-azaspiro[4.5]decan-10-yl)methyl)-6-phenylpyrimidin-4(3H)-one]	10 to 100
CC(C)N[C@@H]1CCN(C(=O)N2CC[C@@H](Cn3cnc(-c4ccccc4)cc3=O)C3(CCCC3)C2)[C@H](c2cc(F)ccc2F)C1 [Example 160, 3-(((R)-7-((2S,4R)-2-(2,5-Difluorophenyl)-4-(isopropylamino)piperidine-1-carbonyl)-7-azaspiro[4.5]decan-10-yl)methyl)-6-phenylpyrimidin-4(3H)-one]	< 10
CN[C@@H]1CCN(C(=O)N2CC[C@@H](Cn3cnc(-c4ccccc4)cc3=O)C3(CCCC3)C2)[C@H](c2cc(F)ccc2F)C1 [Example 78, 3-(((R)-7-((2S,4R)-2-(2,5-Difluorophenyl)-4-(methylamino)piperidine-1-carbonyl)-7-azaspiro[4.5]decan-10-yl)methyl)-6-phenylpyrimidin-4(3H)-one]	< 10
CC1(C)CN(C(=O)N2CC[C@@H](N)C[C@H]2c2ccccc2)CCC1Cn1cnc(-c2ccccc2)cc1=O (stereo partly drawn) [Example 19, 3-((1-((2S,4R)-4-Amino-2-phenylpiperidine-1-carbonyl)-3,3-dimethylpiperidin-4-yl)methyl)-6-phenylpyrimidin-4(3H)-one]	< 10
O=C(N1CC[C@@H](Cn2cnc(-c3ccccc3)cc2=O)C2(CCCC2)C1)N1CCNC[C@H]1c1ccccc1 (single isomer, unassigned) [Example 14]	< 10
CN(C)[C@@H]1CCN(C(=O)N2CC[C@@H](Cn3cnc4ccc(F)cc4c3=O)C3(CCCC3)C2)[C@H](c2cc(F)ccc2F)C1 [Example 174, 3-(((R)-7-((2S,4R)-2-(2,5-Difluorophenyl)-4-(dimethylamino)piperidine-1-carbonyl)-7-azaspiro[4.5]decan-10-yl)methyl)-6-fluoroquinazolin-4(3H)-one]	< 10
O=C(N1CCC(Cn2cnc(-c3ccccc3)cc2=O)C2(CCCC2)C1)N1CCNC[C@H]1c1cc(F)cc(F)c1 (stereo partly drawn) [Example 11, 3-((7-((R)-2-(3,5-Difluorophenyl)piperazine-1-carbonyl)-7-azaspiro[4.5]decan-10-yl)methyl)-6-phenylpyrimidin-4(3H)-one]	< 10
CN[C@@H]1CCN(C(=O)N2CC[C@@H](Cn3cnc(-c4ccccc4OC)cc3=O)C3(CCCC3)C2)[C@H](c2cc(F)cc(F)c2)C1 [Example 124, 3-(((R)-7-((2S,4R)-2-(3,5-Difluorophenyl)-4-(methylamino)piperidine-1-carbonyl)-7-azaspiro[4.5]decan-10-yl)methyl)-6-(2-methoxyphenyl)pyrimidin-4(3H)-one]	< 10
O=C(N1CC[C@@H](Cn2cnc(-c3ccccc3)cc2=O)C2(CCCC2)C1)N1CC[C@@H](NC2CC2)C[C@H]1c1ccccc1 [Example 79, 3-(((R)-7-((2S,4R)-4-(Cyclopropylamino)-2-phenylpiperidine-1-carbonyl)-7-azaspiro[4.5]decan-10-yl)methyl)-6-phenylpyrimidin-4(3H)-one]	< 10
CN[C@@H]1CCN(C(=O)N2CC[C@@H](Cn3cnc(-c4ccccc4)cc3=O)C3(CCCC3)C2)[C@H](c2cccc(F)c2)C1 [Example 63, 3-(((R)-7-((2S,4R)-2-(3-Fluorophenyl)-4-(methylamino)piperidine-1-carbonyl)-7-azaspiro[4.5]decan-10-yl)methyl)-6-phenylpyrimidin-4(3H)-one]	< 10
N[C@@H]1CCN(C(=O)N2CCC(Cn3cnc(C(F)F)cc3=O)C3(CCCC3)C2)[C@H](c2ccccc2)C1 (stereo partly drawn) [Example 28, 3-((7-((2S,4R)-4-Amino-2-phenylpiperidine-1-carbonyl)-7-azaspiro[4.5]decan-10-yl)methyl)-6-(difluoromethyl) pyrimidin-4(3H)-one]	10 to 100
N[C@@H]1CCN(C(=O)N2CC[C@@H](Cn3cnc(-c4ccccc4)cc3=O)C3(CCCC3)C2)[C@H](c2cccc(F)c2)C1 [Example 66, 3-(((R)-7-((2,4R)-4-Amino-2-(3-fluorophenyl)piperidine-1-carbonyl)-7-azaspiro[4.5]decan-10-yl)methyl)-6-phenylpyrimidin-4(3H)-one]	< 10
CN[C@@H]1CCN(C(=O)N2CC[C@@H](Cn3ccc(-c4ccccc4)cc3=O)C3(CCCC3)C2)[C@H](c2cc(F)ccc2F)C1 [Example 91, 1-(((R)-7-((2S,4R)-2-(2,5-Difluorophenyl)-4-(methylamino)piperidine-1-carbonyl)-7-azaspiro[4.5]decan-10-yl)methyl)-4-phenylpyridin-2(1H)-one]	< 10

More lines, now with the values ahead:

IC50 [nM]	SMILES
< 10	CC(=O)N[C@@H]1CCN(C(=O)N2CC[C@@H](Cn3cnc4ccc(F)cc4c3=O)C3(CCCC3)C2)[C@H](c2cc(F)ccc2F)C1 [Example 172, N-((2S,4R)-2-(2,5-Difluorophenyl)-1-((R)-10-((6-fluoro-4-oxoquinazolin-3(4H)-yl)methyl)-7-azaspiro[4.5]decane-7-carbonyl)piperidin-4-yl)acetamide]
< 10	N[C@@H]1CCN(C(=O)N2CCC(F)(Cn3cnc(-c4ccccc4)cc3=O)C3(CCCC3)C2)[C@H](c2ccccc2)C1 (stereo partly drawn) [Example 57, 3-((7-((2S,4R)-4-Amino-2-phenylpiperidine-1-carbonyl)-10-fluoro-7-azaspiro[4.5]decan-10-yl)methyl)-6-phenylpyrimidin-4(3H)-one]
< 10	CO[C@@]1(Cn2ccc(-c3ccccc3)cc2=O)CCN(C(=O)N2CC[C@@H](N)C[C@H]2c2ccccc2)CC12CCCC2 [Example 73, 1-(((S)-7-((2S,4R)-4-Amino-2-phenylpiperidine-1-carbonyl)-10-methoxy-7-azaspiro[4.5]decan-10-yl)methyl)-4-phenylpyridin-2(1H)-one]
100 to 1000	N[C@@H]1CCN(C(=O)N2CCC(Cn3cnccc3=O)C3(CCCC3)C2)[C@H](c2ccccc2)C1 (stereo partly drawn) [Example 30, 3-((7-((2S,4R)-4-Amino-2-phenylpiperidine-1-carbonyl)-7-azaspiro[4.5]decan-10-yl)methyl) pyrimidin-4(3H)-one]
< 10	CN[C@@H]1CCN(C(=O)N2CC[C@@H](Cn3cnc(-c4ccccc4OC)cc3=O)C3(CCCC3)C2)[C@H](c2cccc(F)c2)C1 [Example 102, 3-(((R)-7-((2S,4R)-2-(3-Fluorophenyl)-4-(methylamino)piperidine-1-carbonyl)-7-azaspiro[4.5]decan-10-yl)methyl)-6-(2-methoxyphenyl)pyrimidin-4(3H)-one]
< 10	O=C(N1CC[C@@H](Cn2cnc(-c3ccccc3)cc2=O)C2(CCCC2)C1)N1CC[C@@H](NCc2ccc(F)cn2)C[C@H]1c1ccccc1 [Example 148, 3-(((R)-7-((2S,4R)-4-(((5-Fluoropyridin-2-yl)methyl)amino)-2-phenylpiperidine-1-carbonyl)-7-azaspiro[4.5]decan-10-yl)methyl)-6-phenylpyrimidin-4(3H)-one]
